Eight compounds from patent US20150218173A1, “SUBSTITUTED INDAZOL-PYRROLOPYRIMIDINES USEFUL IN THE TREATMENT OF HYPERFOLIFERATIVE DISORDERS” (BAYER PHARMA AKTIENGESELLSCHAFT, priority 2012, published 2015) can be followed below.

For this assay, the target named is T1, human full-length MKNK1 (Homo sapiens, UniProt Q9BUB5, T385D).
T1 construct: GST (N); purchased Carna Biosciences 02-145; host or cells: insect cells (baculovirus expression system)
T1 sequence (Q9BUB5 1-424 isoform Q9BUB5-2 T344D): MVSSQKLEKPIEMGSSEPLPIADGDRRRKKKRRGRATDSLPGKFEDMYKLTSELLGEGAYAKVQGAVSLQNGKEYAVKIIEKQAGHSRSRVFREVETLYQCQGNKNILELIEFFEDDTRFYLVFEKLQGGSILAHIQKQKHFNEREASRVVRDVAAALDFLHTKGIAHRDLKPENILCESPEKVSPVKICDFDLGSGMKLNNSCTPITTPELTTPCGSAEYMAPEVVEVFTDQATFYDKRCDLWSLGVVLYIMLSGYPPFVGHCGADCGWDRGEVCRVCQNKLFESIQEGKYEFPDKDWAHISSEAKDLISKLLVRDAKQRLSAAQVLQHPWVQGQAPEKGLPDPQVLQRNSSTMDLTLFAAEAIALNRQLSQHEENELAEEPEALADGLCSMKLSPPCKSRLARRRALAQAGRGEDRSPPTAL
Nature of the assay: MKNK1 kinase high ATP assay (TR-FRET). The class given is biochemical. To be noted: high ATP (2 mM final), 15 min preincubation with enzyme. As to the method:
MKNK1-inhibitory activity at high ATP of compounds of the present invention after their preincubation with MKNK1 was quantified employing the TR-FRET-based MKNK1 high ATP assay as described in the following paragraphs.
A recombinant fusion protein of Glutathione-S-Transferase (GST, N-terminally) and human full-length MKNK1 (amino acids 1-424 and T344D of accession number BAA 19885.1), expressed in insect cells using baculovirus expression system and purified via glutathione sepharose affinity chromatography, was purchased from Carna Biosciences (product no 02-145) and used as enzyme. As substrate for the kinase reaction the biotinylated peptide biotin-Ahx-IKKRKLTRRKSLKG (C-terminus in amide form) was used, which can be purchased e.g. from the company Biosyntan (Berlin-Buch, Germany).
For the assay 50 nL of a 100 fold concentrated solution of the test compound in DMSO was pipetted into a black low volume 384 well microtiter plate (Greiner Bio-One, Frickenhausen, Germany), 2 μL of a solution of MKNK1 in aqueous assay buffer [50 mM HEPES pH 7.5, 5 mM MgCl2, 1.0 mM dithiothreitol, 0.005% (v/v) Nonidet-P40 (Sigma)] was added and the mixture was incubated for 15 min at 22° C. to allow pre-binding of the test compounds to the enzyme before the start of the kinase reaction. Then the kinase reaction was started by the addition of 3 μL of a solution of adenosine-tri-phosphate (ATP, 3.3 mM=>final conc. in the 5 μL assay volume is 2 mM) and substrate (0.1 μM=>final conc. in the 5 μL assay volume is 0.06 μM) in assay buffer and the resulting mixture was incubated for a reaction time of 30 min at 22° C. The concentration of MKNK1 was adjusted depending of the activity of the enzyme lot and was chosen appropriate to have the assay in the linear range, typical concentrations were in the range of 0.003 μg/mL. The reaction was stopped by the addition of 5 μL of a solution of TR-FRET detection reagents (5 nM streptavidine-XL665 [Cisbio Bioassays, Codolet, France] and 1 nM anti-ribosomal protein S6 (pSer236)-antibody from Invitrogen [#44921G] and 1 nM LANCE EU-W1024 labeled ProteinG [Perkin-Elmer, product no. AD0071]) in an aqueous EDTA-solution (100 mM EDTA, 0.1% (w/v) bovine serum albumin in 50 mM HEPES pH 7.5).
The resulting mixture was incubated for 1 h at 22° C. to allow the formation of complex between the phosphorylated biotinylated peptide and the detection reagents. Subsequently the amount of phosphorylated substrate was evaluated by measurement of the resonance energy transfer from the Eu-chelate to the streptavidine-XL. Therefore, the fluorescence emissions at 620 nm and 665 nm after excitation at 350 nm were measured in a TR-FRET reader, e.g. a Rubystar (BMG Labtechnologies, Offenburg, Germany) or a Viewlux (Perkin-Elmer). The ratio of the emissions at 665 nm and at […] was taken as the measure for the amount of phosphorylated substrate. The data were normalised (enzyme reaction without inhibitor=0% inhibition, all other assay components but no enzyme=100% inhibition).
On the technique in general: Time-resolved FRET reads energy transfer from a long-lived donor to a nearby acceptor.
By IC50 is commonly meant the midpoint of a concentration-inhibition curve. A low value points to inhibition by little substance. `O=S(=O)(c1ccc(Cl)cc1)c1cc2c(Nc3ccc4[nH]ncc4c3)ncnc2[nH]1` [Example 38, 6-[(4-Chlorophenyl)sulfonyl]-N-(1H-indazol-5-yl)-7H-pyrrolo[2,3-d]pyrimidin-4-amine]: the 50% inhibitory concentration (IC50) came to 1 nM.

With `CC(C)Cc1[nH]c2ncnc(Nc3ccc4[nH]ncc4c3)c2c1C(C)C` [Example 39, N-(1H-Indazol-5-yl)-6-(2-methylpropyl)-5-(propan-2-yl)-7H-pyrrolo[2,3-d]pyrimidin-4-amine], 21 nM corresponded to half-maximal inhibition (IC50). As for `CCc1c[nH]c2ncnc(Nc3ccc4[nH]ncc4c3)c12` [Example 40, 5-Ethyl-N-(1H-indazol-5-yl)-7H-pyrrolo[2,3-d]pyrimidin-4-amine], the figure is 29 nM; as for `OCc1c[nH]c2ncnc(Nc3ccc4[nH]ncc4c3)c12` [Example 41, [4-(1H-indazol-5-ylamino)-7H-pyrrolo[2,3-d]pyrimidin-5-yl]methanol], 37 nM; as for `C[C@@H]1COCCN1C(=O)c1[nH]c2ncnc(Nc3ccc4[nH]ncc4c3)c2c1Br` [Example 42, [5-Bromo-4-(1H-indazol-5-ylamino)-7H-pyrrolo[2,3-d]pyrimidin-6-yl][(3R)-3-methylmorpholin-4-yl]methanone], 58 nM. `C[C@H]1COCCN1C(=O)c1[nH]c2ncnc(Nc3ccc4[nH]ncc4c3)c2c1Br` [Example 43, [5-Bromo-4-(1H-indazol-5-ylamino)-7H-pyrrolo[2,3-d]pyrimidin-6-yl][(3S)-3-methylmorpholin-4-yl]methanone] came in with an IC50 of 75 nM. As for `O=C(c1[nH]c2ncnc(Nc3ccc4[nH]ncc4c3)c2c1Br)N1CCOCC1` [Example 44, [5-Bromo-4-(1H-indazol-5-ylamino)-7H-pyrrolo[2,3-d]pyrimidin-6-yl](morpholin-4-yl)methanone], the figure is 48 nM; as for `O=C(c1[nH]c2ncnc(Nc3ccc4[nH]ncc4c3)c2c1Br)N1CCCCC1` [Example 45, [5-Bromo-4-(1H-indazol-5-ylamino)-7H-pyrrolo[2,3-d]pyrimidin-6-yl](piperidin-1-yl)methanone], 45 nM.
